Reference: US9056067B2, “Pharmaceutical composition for enhancing immunity, and extract of Poria” (Sinphar Pharmaceutical Co., Ltd., priority 2003, dated 2015)
“And” between values parts separate entries of the source, which are not always exact repeats. Equal entries are not always repeated.

Experiments:
[1] = test system: spleen cells; experiment: Spleen cell growth (MTT assay) after oral administration; type: in vivo, mice
Method: BALB/c male mice, 6-8 weeks old, were used throughout the experiment. The animals were purchased from National Laboratory Animal Center, Taipei, Taiwan. The mice were housed in the Individual Ventilation Cage System, which provided an environment of Specific Pyrogen-Free. The facilities had 12-h day/night rhythm, 24-26° C. and 30-70% humidity in air. Mice were fed autoclaved water and rodent chow, and the bedding was sterilized by autoclave also. The feedstock purchased from animal center of National Taiwan University composed of crude proteins (>23.0%), crude fat (>4.5%), crude fiber (<6.0%), ash (<8.0%), added minerals (<3.0%) and water (<12%). After transport, the mice were allowed to rest for two weeks before the experiments were started.
[…] […] The control group was the mice feeding with an equal volume of saline (0.85% of NaCl). Mice were sacrificed at day five, and both the serum and spleen cells were collected. The sera were subsequently used to measure the concentration of IgG, IgM and IgA. The spleen cells were plated onto a 100 mm diameter culture plate and incubated at 37° C. for three hours. The non-adherent cells containing T-lymphocytes, B-lymphocytes and NK cells were collected and properly diluted as described in each assay.
The dry powder of PCM, PCM-K1, K-2, K-3 and K4 were suspended in sterile water, followed by sonication to break down the large particle. The suspension of fine particles was used to feed the animals.
(§1) The mouse to be sacrificed was cervical dislocated and sterilized with 70% ethanol. The cardiac punctuation was performed first to withdraw the blood. After the haemagglutination, the blood sample was subjected to centrifugation and the serum was collect. For isolation of spleen cells, the peritoneum was opened to remove the spleen. The fresh spleen was transferred to a culture plate containing 10 ml of RPMI-1640 culture medium. The spleen was then ground over a fine mesh to release the spleen cells. The spleen cells suspending in the medium were then removed and transferred to a 50-ml conical centrifuge tube. The tube was subjected to centrifugation at 1300 rpm for 10 min. The supernatant was discarded and the pellet was re-suspended in 1 ml of cold RBC lysing buffer containing EDTA-NH4Cl. The cells were incubated at room temperature for 10 min, followed by washing the cells three times with culture medium by centrifugation. The spleen cells were plated onto a 100 mm diameter culture plate and incubated at 37° C. for three hours. The non-adherent cells containing T-lymphocytes, B-lymphocytes and NK cells were collected and properly diluted as described in each assay.
MTT assay is the method routinely used for estimating the viable cell number and viability of the cultured cells. The basic principle is that the only mitochondria in a viable cells contain biologically activated oxido-reductive enzymes. The enzymes interact with MTT reagents to convert the chemical into a relatively insoluble blue crystal. The crystal is then solubilized in an acidic isopropanol and the absorbence at 570 nm in each well was read using an ELISA reader (EL311, BioTek, VT). Briefly, the spleen cells suspended in a medium containing RPMI 1640 supplemented with 10% fetal bovine serum (FBS), 2 mM L-glutamine, antibiotics and 1 μg/ml concanavalin A (Con A) were cultured in the 96-well flat-bottom plate (5×10^5 cells/100 μl/well) for 5 days. MTT assay was performed at day 3, 4 and 5. MTT tetrazolium (3-(4-5-dimethylthiazol-2-yl)-2,5-diphenyltertrazolium bromide) (5 mg/ml in phosphate-buffered saline) (Sigma Chemical, St. Louis, Mo.) was added to the spleen cells (20 μl MTT per 100 μl cells), and plates were incubated at 37° C. for 4 h. Acid-isopropanol (100 μl of 0.04 NHCL in isopropanol) was added to all wells and mixed completely to dissolve the dark blue crystals. After 20 minutes at room temperature to ensure that all crystals were dissolved, the plates were read on an EIA reader at 570 nm.

[2] = test system: IFN-γ; experiment: IFN-γ secretion by Con A-stimulated spleen cells (ELISA) after oral administration; type: in vivo, mice; conditions: for IFN-γ secretion by spleen cell: Con A; for Dose with significantly augmented IFNγ secretion by ConA-stimulated splenic T cells: oral
Method: For the drug treatment, the animals were divided into four groups and oral administration with 1 ml of PCM, ranging from 10, 40 to 80 mg/kg/day, for four days. […] The control group was the mice feeding with an equal volume of saline (0.85% of NaCl). Mice were sacrificed at day five, and both the serum and spleen cells were collected. The sera were subsequently used to measure the concentration of IgG, IgM and IgA. The spleen cells were plated onto a 100 mm diameter culture plate and incubated at 37° C. for three hours. The non-adherent cells containing T-lymphocytes, B-lymphocytes and NK cells were collected and properly diluted as described in each assay.
as §1
For the quantitative analysis of IFN-γ and IL-10, the spleen cells (1×10^6 cells/ml) were cultured in a medium containing RPMI 1640 supplemented with 10% fetal bovine serum (FBS), 2 mM L-glutamine, antibiotics and 1 μg/ml concanavalin A (Con A) for 3 days. Con A is one of the polyclonal activators for T lymphocyte. Culture spleen cell supernatants were collected. The IFNγ and IL-10 concentrations were measured using a cytokine ELISA set (Cyto Set ELISA kit) purchased from R&D Systems (MN, USA).
Cyto Set ELISA was performed as follows: A 96-well microtiter plate (Nunc-Immuno Plate, MaxiSorp, Nunc, Denmark) was precoated with capture antibodies at 4° C. overnight. The capture antibody was a rat monoclonal antibody to mouse IL-10. The samples to be tested and standard IL-10 ranged from 500 pg/ml to 15.6 pg/ml were added (100 μl/well). The plate was then incubated at 37° C. for 20 min. At the end of incubation, the plate was washed five times, followed by adding the biotinylated goat anti IL-10 polyclonal antibody. The color was developed by incubating the plate with a HRP-conjugated streptoavidin (Zymed, CA, USA), followed by a substrate solution containing hydrogen peroxide and tetramethylbenzidine (TMB). The reaction continued for 30 min at room temperature, and was stopped by adding 100 μl of 2N of sulfuric acid. The absorbence at 450 nm in each well was read using an ELISA reader (EL311, BioTek, Winooski, Vt.), and the data was analyzed using log-logit model.
Cyto Set ELISA of IFN-γ was similar to that of IL-10, except that the capture antibody was a rat monoclonal antibody to mouse IFN-γ, and secondary antibody was biotinylated goat anti IFN-γ polyclonal antibody.
TH1-type cytokines, such as interleukin-2 (IL-2), interferon-γ (IFN-γ) induces the cellular immune response. Whereas, TH2-type cytokines, such as interleukin-4 (IL-4), interleukin-5 (IL-5), interleukin-6 (IL-6), stimulates the B lymphocyte-mediated humoral immune response. […] Spleen cells isolated from the mice treated with PCM and its purified components, such as PCM-K1, -K2, -K3 and K4, were cultured for five days in the presence of ConA. […]

[3] = oral 10 mg/kg/day for four days
[4] = oral 20 mg/kg/day for four days

Row | Compound | Spleen cell growth, absorbance at 570 nm (MTT assay), incubation day 3 ([1]; oral 5 mg/kg/day for four days) | Spleen cell growth, absorbance at 570 nm (MTT assay), incubation day 4 ([1]; oral 5 mg/kg/day for four days) | Spleen cell growth, absorbance at 570 nm (MTT assay), incubation day 5 ([1]; oral 5 mg/kg/day for four days) | Spleen cell growth, absorbance at 570 nm (MTT assay), incubation day 3 [1, 3] | Spleen cell growth, absorbance at 570 nm (MTT assay), incubation day 4 [1, 3] | Spleen cell growth, absorbance at 570 nm (MTT assay), incubation day 5 [1, 3] | Spleen cell growth, absorbance at 570 nm (MTT assay), incubation day 3 [1, 4] | Spleen cell growth, absorbance at 570 nm (MTT assay), incubation day 4 [1, 4] | Spleen cell growth, absorbance at 570 nm (MTT assay), incubation day 5 [1, 4] | IFN-γ secretion by spleen cell ([2]; oral 5 mg/kg/day for four days) [pg/mL] | IFN-γ secretion by spleen cell [2, 3] [pg/mL] | IFN-γ secretion by spleen cell [2, 4] [pg/mL] | Dose with significantly augmented IFNγ secretion by ConA-stimulated splenic T cells ([2]; listed as PCM-K3) | Dose with significantly augmented IFNγ secretion by ConA-stimulated splenic T cells [2] [mg/kg/day]
1 | C=C(CC[C@@H](C(=O)O)[C@H]1[C@H](O)C[C@@]2(C)C3=CC[C@H]4C(C)(C)C(=O)CC[C@]4(C)C3=CC[C@]12C)C(C)C [K3] | 1.154 ± 0.172 | 0.841 ± 0.160 | 0.864 ± 0.194 | 1.020 ± 0.090 | 0.900 ± 0.193 | 0.957 ± 0.200 | 1.103 ± 0.081 | 1.068 ± 0.132 | 0.943 ± 0.159 | 917.07 ± 130.41 | 449.74 ± 100.67 | 176.20 ± 45.96 | 5 mg/kg/day and 10 mg/kg/day | –
2 | C=C(CCC(C(=O)O)C1C(O)CC2(C)C3=CCC4C(C)(CCC(O)C4(C)C)C3=CCC12C)C(C)C (centres unmarked) [K4] | 0.949 ± 0.101 | 0.981 ± 0.087 | 0.862 ± 0.085 | 1.198 ± 0.101 | 1.273 ± 0.147 | 1.177 ± 0.078 | 1.233 ± 0.040 | 1.263 ± 0.041 | 1.061 ± 0.124 | 240.45 ± 107.83 | 252.26 ± 103.76 | 292.00 ± 77.77 | – | 20
